Tests used:
Design in all cases: scale not given here
AMBEL Ragweed, Common [1] = assay: Postemergence herbicidal evaluation, AMBEL; assay type: in vivo, Ambrosia artemisifolia, L.; settings: postemergence spray, rated about two-three weeks after treatment
Summary of the method: (§1)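 Two-week-old seedlings sprayed postemergence with compound in 80/20 acetone/water plus 1.0% methylated seed oil, at about 0.006–0.400 kg/ha, through a nozzle at 40 psi. Plants kept under greenhouse conditions and visually rated about two–three weeks after treatment; ratings from repeat tests averaged.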

ORYSAT Rice, Tebonnet = assay: Postemergence herbicidal evaluation, ORYSAT; assay type: in vivo, Oryza sativa, (L.); settings: postemergence spray, rated about two-three weeks after treatment
Summary of the method: as §1

[2] = tested on: CHEAL Lambsquarters, Common; assay: Preemergence herbicidal evaluation, CHEAL; assay type: in vivo, Chenopodium album, L.; settings: preemergence
Summary of the method: (§2)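 Seeds mixed with potting soil in cups, then sprayed preemergence with aqueous acetone test solution at about 0.013 to 0.800 kg per hectare equivalent. Cups kept under standard greenhouse care; plants rated on a visual scale four to five weeks after treatment.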

SETVI Foxtail, Green [3] = assay: Preemergence herbicidal evaluation, SETVI; assay type: in vivo, Setaria viridis, (L.) Beau; settings: preemergence
Summary of the method: as §2

AMBEL Ragweed, Common [4] = assay: Preemergence herbicidal evaluation, AMBEL; assay type: in vivo, Ambrosia artemisifolia, L.; settings: preemergence
Summary of the method: as §2

[5] = tested on: TRZAWR Wheat, Winter, cv Riband; assay: Preemergence herbicidal evaluation, TRZAWR; assay type: in vivo, Triticum aestivum; settings: preemergence
Summary of the method: as §2

[6] = tested on: TRZAWR Wheat, Winter, cv Riband; assay: Postemergence herbicidal evaluation, TRZAWR; assay type: in vivo, Triticum aestivum; settings: postemergence spray, rated about two-three weeks after treatment
Summary of the method: as §1

GLXMAW Soybean, Williams = assay: Postemergence herbicidal evaluation, GLXMAW; assay type: in vivo, Glycine max, (L.) Merr. cv Williams; settings: postemergence spray, rated about two-three weeks after treatment
Summary of the method: as §1

SETVI Foxtail, Green [7] = assay: Postemergence herbicidal evaluation, SETVI; assay type: in vivo, Setaria viridis, (L.) Beau; settings: postemergence spray, rated about two-three weeks after treatment
Summary of the method: as §1

ECHOG Barnyardgrass [8] = assay: Postemergence herbicidal evaluation, ECHOG; assay type: in vivo, Echinochloa crus-galli, (L.) Beau; settings: postemergence spray, rated about two-three weeks after treatment
Summary of the method: as §1

GALAP Galium = assay: Preemergence herbicidal evaluation, GALAP; assay type: in vivo, Galium aparine; settings: preemergence
Summary of the method: as §2

ECHOG Barnyardgrass [9] = assay: Preemergence herbicidal evaluation, ECHOG; assay type: in vivo, Echinochloa crus-galli, (L.) Beau; settings: preemergence
Summary of the method: as §2

SMILES: COc1ccc(Cl)cc1-n1nnc2cc(F)c(-n3c(=O)cc(C(F)(F)F)n(C)c3=O)cc21 [Example 30]
- Postemergence herbicidal rating AMBEL (AMBEL Ragweed, Common [1]; 0.016 kg/ha): 9.0
- Postemergence herbicidal rating AMBEL (AMBEL Ragweed, Common [1]; 0.032 kg/ha): 9.0
- Postemergence herbicidal rating AMBEL (AMBEL Ragweed, Common [1]; 0.062 kg/ha): 9.0
- Postemergence herbicidal rating ORYSAT (ORYSAT Rice, Tebonnet; 0.008 kg/ha): 3.5
- Postemergence herbicidal rating ORYSAT (ORYSAT Rice, Tebonnet; 0.016 kg/ha): 3.5
- Postemergence herbicidal rating ORYSAT (ORYSAT Rice, Tebonnet; 0.032 kg/ha): 4.0
- Postemergence herbicidal rating ORYSAT (ORYSAT Rice, Tebonnet; 0.062 kg/ha): 4.5
- CHEAL herbicidal rating ([2]; rate 0.016 kg/ha): 9.0
- CHEAL herbicidal rating ([2]; rate 0.032 kg/ha): 9.0
- CHEAL herbicidal rating ([2]; rate 0.062 kg/ha): 9.0
- CHEAL herbicidal rating ([2]; rate 0.125 kg/ha): 9.0
- SETVI herbicidal rating (SETVI Foxtail, Green [3]; rate 0.016 kg/ha): 4.0
- SETVI herbicidal rating (SETVI Foxtail, Green [3]; rate 0.032 kg/ha): 7.0
- SETVI herbicidal rating (SETVI Foxtail, Green [3]; rate 0.062 kg/ha): 9.0
- SETVI herbicidal rating (SETVI Foxtail, Green [3]; rate 0.125 kg/ha): 9.0
- AMBEL herbicidal rating (AMBEL Ragweed, Common [4]; rate 0.016 kg/ha): 0.0
- AMBEL herbicidal rating (AMBEL Ragweed, Common [4]; rate 0.032 kg/ha): 0.0
- AMBEL herbicidal rating (AMBEL Ragweed, Common [4]; rate 0.062 kg/ha): 3.0
- AMBEL herbicidal rating (AMBEL Ragweed, Common [4]; rate 0.125 kg/ha): 6.0
- TRZAWR herbicidal rating ([5]; rate 0.016 kg/ha): 0.0
- TRZAWR herbicidal rating ([5]; rate 0.032 kg/ha): 1.0
- TRZAWR herbicidal rating ([5]; rate 0.062 kg/ha): 2.0
- TRZAWR herbicidal rating ([5]; rate 0.125 kg/ha): 2.0
- Postemergence herbicidal rating TRZAWR ([6]; 0.008 kg/ha): 3.5
- Postemergence herbicidal rating TRZAWR ([6]; 0.016 kg/ha): 3.5
- Postemergence herbicidal rating TRZAWR ([6]; 0.032 kg/ha): 4.0
- Postemergence herbicidal rating TRZAWR ([6]; 0.062 kg/ha): 4.5
- Postemergence herbicidal rating GLXMAW (GLXMAW Soybean, Williams; 0.008 kg/ha): 6.5
- Postemergence herbicidal rating GLXMAW (GLXMAW Soybean, Williams; 0.016 kg/ha): 6.5
- Postemergence herbicidal rating GLXMAW (GLXMAW Soybean, Williams; 0.032 kg/ha): 8.0
- Postemergence herbicidal rating GLXMAW (GLXMAW Soybean, Williams; 0.062 kg/ha): 8.0
- Postemergence herbicidal rating SETVI (SETVI Foxtail, Green [7]; 0.008 kg/ha): 7.0
- Postemergence herbicidal rating SETVI (SETVI Foxtail, Green [7]; 0.016 kg/ha): 6.0
- Postemergence herbicidal rating SETVI (SETVI Foxtail, Green [7]; 0.032 kg/ha): 9.0
- Postemergence herbicidal rating SETVI (SETVI Foxtail, Green [7]; 0.062 kg/ha): 9.0
- Postemergence herbicidal rating ECHCG (ECHOG Barnyardgrass [8]; 0.008 kg/ha): 2.0
- Postemergence herbicidal rating ECHCG (ECHOG Barnyardgrass [8]; 0.016 kg/ha): 4.0
- Postemergence herbicidal rating ECHCG (ECHOG Barnyardgrass [8]; 0.032 kg/ha): 4.0
- Postemergence herbicidal rating ECHCG (ECHOG Barnyardgrass [8]; 0.062 kg/ha): 6.0
- GALAP herbicidal rating (GALAP Galium; rate 0.016 kg/ha): 2.0
- GALAP herbicidal rating (GALAP Galium; rate 0.032 kg/ha): 2.0
- GALAP herbicidal rating (GALAP Galium; rate 0.062 kg/ha): 3.0
- GALAP herbicidal rating (GALAP Galium; rate 0.125 kg/ha): 4.0
- ECHCG herbicidal rating (ECHOG Barnyardgrass [9]; rate 0.016 kg/ha): 1.0
- ECHCG herbicidal rating (ECHOG Barnyardgrass [9]; rate 0.032 kg/ha): 5.0
- ECHCG herbicidal rating (ECHOG Barnyardgrass [9]; rate 0.062 kg/ha): 7.0
- ECHCG herbicidal rating (ECHOG Barnyardgrass [9]; rate 0.125 kg/ha): 7.0

From US20020111274A1, “1-alkyl-3-[1-(substituted phenyl) benzotriazol-6-yl] uracils” (BASF Aktiengesellschaft, priority 2000, published 2002)
